Values of other authors as cited in patent US10654880B2, “Methods for preparation of glycosphingolipids and uses thereof” (priority 2011, dated 2020).

Tested on: breast cancer tumors (4T1 cell line)
Conditions: breast cancer-bearing mice (4T1), relative to untreated group

Compound: CCCCCCCCCCCCCCCCCCCCCCCCCC(=O)N[C@@H](CO[C@H]1O[C@H](CO)[C@H](O)[C@H](O)[C@H]1O)[C@H](O)[C@H](O)CCCCCCCCCCCCCC [α-GalCer, alpha-galactosylceramide]
- inhibition of tumor growth rate: 50%
